pIC50: −log10 of the molar value. Where “and” joins values, the source holds several entries; their conditions need not be identical. Equal entries are not always repeated. Where two headings read alike, the source gives them in different places.
How the values were obtained:
[1] = system: MAC15A (murine adenocarcinoma colon); assay: Anti-tumour activity against MAC15A ascites tumour, survival T/C%; format: in vivo, mice; conditions: for T/C%: mouse, in vivo; for response vs control in vivo at 100 mg/kg: Mus musculus, MAC15A, read-out: T/C%
in vitro = conditions: CC50 (Toxicity)
[2] = system: M5076 reticulum cell sarcoma; assay: Anti-tumour activity against M5076 reticulum cell sarcoma; format: in vivo, murine; conditions: statement in words
Protocol: The purpose of these studies was to evaluate the anti-tumour properties of a group of compounds with structural similarities that may act as arylating agents. Their in vivo anti-tumour responses were assessed against two ascitic tumours, the MAC15A murine colon adenocarcinoma and the P388 murine leukaemia and various solid tumour models.
The MAC15A ascites tumour cells were transplanted into male NMR1 mice by ip inoculation at a cell density of 1 X 10^5 cells in 200µl buffer (Table 1). The P388 were transplanted ip into male BDF1 mice at cell density of 1 X 10^6 cells in 200µl buffer (Table 2). The solid tumour models included the MAC13 and MAC16 murine colon adenocarcinomas, the B16 F1 murine melanoma and the M5076 reticulum cell sarcoma.
Treatment commenced 3 days after ip transplant or, in the case of solid tumours such as MAC13 and MAC16, treatment commenced when average tumour volumes reached 40mm^3.
The animals were sacrificed after 12 days or when tumours ulcerated, tumour volume exceeded 1000mm^3 or loss of body weight exceeded 50%.
Except where otherwise stated, the compounds used were dissolved in DMSO and diluted in sterile distilled water, at appropriate concentrations before administration in a solvent volume of 200 µl. Anti-tumour responses were obtained by comparing the median survival times or tumour growth inhibition against solvent controls.

HIV-1IIIB = assay: Acute infection assay against HIV-1IIIB; format: cell-based, human immunodeficiency virus; conditions: for pIC50: read-out: IC50 (Antiviral)
HIV-1RF = assay: Acute Infection Assay, HIV core antigen ELISA in C8166 cells; format: cell-based, human immunodeficiency virus
B16F1-murine melanoma = conditions: 12 days after sc transplant, corn oil
in vivo = conditions: mouse, ip
[3] = Human immunodeficiency virus 1, IIIB
[4] = Human immunodeficiency virus 1, Table 11.3, Against HIV-IIIB / HIV-1IIIB, single assays, unit inferred
[5] = Human immunodeficiency virus 1, C8166, read-out: IC50 (Antiviral)
[6] = Human immunodeficiency virus 1, C8166, Table 11.4, Against HIV-1RF, single assays, unit inferred, read-out: IC50 (Antiviral)

## 2-glutathionyl-3,5-dinitrobenzenesulfonic acid
[1]; ip
  T/C%: 242%

## 4-glutathionyl-3,5-dinitrobenzene
[1]; ip
  T/C%: 113%

## Nc1ccc([N+](=O)[O-])cc1[N+](=O)[O-] [2,4-dinitroaniline]
[1]; ip
  T/C%: 100%

## O=C(O)c1ccc([N+](=O)[O-])cc1[N+](=O)[O-] [2,4-dinitrobenzoic acid]
[1]; ip
  T/C%: 100%

## Nc1c([N+](=O)[O-])cccc1[N+](=O)[O-] [2,6-dinitroaniline]
[1]; ip
  T/C%: 214%

## Nc1ccc([N+](=O)[O-])cc1Cl [2-chloro-4-nitroaniline]
[1]; ip
  response vs control in vivo at 100 mg/kg: 171%

## O=C(O)c1cc([N+](=O)[O-])cc([N+](=O)[O-])c1 [3,5-dinitrobenzoic acid]
[1]; ip
  T/C%: 100%

## Cc1ccc(S(=O)(=O)O)cc1[N+](=O)[O-] [3-nitro-4-methylbenzenesulfonic acid]
[1]; ip
  response vs control in vivo at 100 mg/kg: 229%

## NC(=O)c1cc([N+](=O)[O-])c(N)c([N+](=O)[O-])c1 [4-amino-3,5-dinitrobenzamide]
[1]; ip, 24 h
  response vs control in vivo at 100 mg/kg: 100%

## Nc1c([N+](=O)[O-])cc(Cl)cc1[N+](=O)[O-] [4-chloro-2,6-dinitroaniline]
[1]; ip
  T/C%: 87%

## COc1ccc(Cl)c([N+](=O)[O-])c1 [4-chloro-3-nitroanisole]
[1]; ip
  response vs control in vivo at 100 mg/kg: 100%

## Nc1c(Cl)cc([N+](=O)[O-])cc1[N+](=O)[O-] [6-chloro-2,4-dinitroaniline]
[1]; ip
  T/C%: 87%

## COC(=O)c1cc([N+](=O)[O-])c(Cl)c([N+](=O)[O-])c1Cl [Compound C3, 2,4-dichloro-3,5-dinitrobenzoic acid methyl ester]
In vitro
  CC50: 7 µM
[2]
  antitumour activity: without antitumour activity
HIV-1IIIB; [3]
  pIC50: 6.52

## O=C(O)c1cc([N+](=O)[O-])c(Cl)c([N+](=O)[O-])c1 [Compound C4, 4-chloro-3,5-dinitrobenzoic acid]
In vitro
  CC50: 100 µM
HIV-1RF
  TI: 2.33
Uninfected cells
  CD50: 70µm
HIV-1IIIB
  SI (Selectivity Index): 2.5 and 2.3
B16F1-murine melanoma; 50 mg/kg ip, days 1,5
  % Tumour Weight Inhibition: 10%
B16F1-murine melanoma; 75 mg/kg ip, days 1,5
  % Tumour Weight Inhibition: 41%
B16F1-murine melanoma; 100 mg/kg ip, days 1,5
  % Tumour Weight Inhibition: 39%

## NC(=O)c1cc([N+](=O)[O-])c(Cl)c([N+](=O)[O-])c1 [Compound C5, 4-chloro-3,5-dinitrobenzamide]
In vitro
  CC50: 50 µM
In vivo
  MTD at 12 days: 5 mg/kg
HIV-1IIIB
  SI (Selectivity Index): 10
B16F1-murine melanoma; 1.25 mg/kg ip, days 1,3,5
  % Tumour Weight Inhibition: 27%
B16F1-murine melanoma; 2.5 mg/kg ip, days 1,3,5
  % Tumour Weight Inhibition: 18%
B16F1-murine melanoma; 5 mg/kg ip, days 1,3,5
  % Tumour Weight Inhibition: 18%

## COC(=O)c1cc([N+](=O)[O-])c(Cl)c([N+](=O)[O-])c1 [Compound C6, 4-chloro-3,5-dinitrobenzoic acid methyl ester]
In vitro
  CC50: 60 µM
In vivo
  MTD: 2.5 mg/kg
HIV-1IIIB; [3]
  pIC50: 5.30

## O=C(O)c1cc([N+](=O)[O-])cc([N+](=O)[O-])c1Cl [Compound C7, 2-chloro-3,5-dinitrobenzoic acid]
In vitro
  CC50: 150 µM
Uninfected cells
  CC50: > 200 µM
HIV-1IIIB
  SI (Selectivity Index): 6 and >10
  pIC50: 4.64

## COC(=O)c1cc([N+](=O)[O-])cc([N+](=O)[O-])c1Cl [Compound C8, 2-chloro-3,5-dinitrobenzoic acid methyl ester]
In vitro
  CC50: 60 µM
HIV-1IIIB; [3]
  pIC50: 5.00

## O=C(O)c1ccc(Cl)c([N+](=O)[O-])c1 [Compound C9, 4-chloro-3-nitrobenzoic acid]
In vitro
  CC50: > 200 µM
HIV-1IIIB; [4]
  pIC50: < 3.70

## O=C(O)c1ccc([N+](=O)[O-])cc1Cl [Compound C-10, 2-chloro-4-nitrobenzoic acid]
In vitro
  CC50: > 200 µM
HIV-1IIIB; [4]
  pIC50: < 3.70

## O=C(O)c1ccc(Cl)c(Cl)c1 [Compound C-11, 3,4-dichlorobenzoic acid]
In vitro
  CC50: > 200 µM
HIV-1IIIB; [4]
  pIC50: < 3.70

## O=C(O)c1cc(Cl)ccc1Cl [Compound C-12, 2,5-dichlorobenzoic acid]
In vitro
  CC50: > 200 µM
[1]; ip
  response vs control in vivo at 100 mg/kg: 171%

## O=[N+]([O-])c1ccc(Cl)cc1[N+](=O)[O-] [Compound E1, 1-chloro-3,4-dinitrobenzene]
In vitro
  CC50: 10 µM
HIV-1RF
  SI (Selectivity Index): 2.5
HIV-1RF; read-out: IC50 (Antiviral)
  pIC50: 5.40
[1]; ip
  T/C%: 200%

## O=[N+]([O-])c1ccc(Cl)c([N+](=O)[O-])c1 [Compound E2, 1-chloro-2,4-dinitrobenzene]
In vitro
  CC50: 13 µM
HIV-1RF
  SI (Selectivity Index): 3
HIV-1RF; [5]
  pIC50: 5.40
[1]; ip
  response vs control in vivo at 100 mg/kg: 188%

## O=[N+]([O-])c1cc(Cl)c(Cl)cc1[N+](=O)[O-] [Compound E3, 1,2-dichloro-4,5-dinitrobenzene]
In vitro
  CC50: 7 µM
HIV-1RF
  SI (Selectivity Index): 1.5
HIV-1RF; read-out: IC50 (Antiviral)
  pIC50: 5.40
[1]; ip
  T/C%: 171%

## O=[N+]([O-])c1cccc(Cl)c1Cl [Compound E4, 2,3-dichloronitrobenzene]
HIV-1RF
  SI (Selectivity Index): 1.5
HIV-1RF; [5]
  pIC50: 4.10
Uninfected cells
  CC50: > 200 µM

## O=[N+]([O-])c1ccc(Cl)cc1Cl [Compound E5, 2,4-dichloronitrobenzene]
HIV-1RF
  SI (Selectivity Index): 1
HIV-1RF; [5]
  pIC50: 3.74
Uninfected cells
  CC50: > 200 µM

## O=[N+]([O-])c1cc(Cl)ccc1Cl [Compound E6, 2,5-dichloronitrobenzene]
In vitro
  CC50: > 200 µM
HIV-1RF
  SI (Selectivity Index): 2
HIV-1RF; [5]
  pIC50: 3.96

## O=[N+]([O-])c1ccc(Cl)c(Cl)c1 [Compound E7, 3,4-dichloronitrobenzene]
HIV-1RF; [5]
  pIC50: < 3.70
Uninfected cells
  CC50: > 200 µM

## O=[N+]([O-])c1cc(Cl)cc(Cl)c1 [Compound E8, 3,5-dichloronitrobenzene]
HIV-1RF
  SI (Selectivity Index): 1.5
HIV-1RF; [5]
  pIC50: 3.92
Uninfected cells
  CC50: > 200 µM

## O=[N+]([O-])c1cc(Cl)cc(Cl)c1[N+](=O)[O-] [Compound E9, 1,5-dichloro-2,3-dinitrobenzene]
[1]; ip
  response vs control in vivo at 100 mg/kg: 386%

## O=[N+]([O-])c1ccc(Cl)c(Cl)c1Cl [Compound E10, 1,2,3-trichloro-4-nitrobenzene]
In vitro
  CC50: 90 µM
HIV-1RF; [5]
  pIC50: < 3.70

## O=[N+]([O-])c1cc(Cl)c(Cl)cc1Cl [Compound E11, 1,2,4-trichloro-5-nitrobenzene]
In vitro
  CC50: > 200 µM
HIV-1RF; [5]
  pIC50: < 3.70

## O=[N+]([O-])c1c(Cl)cc(Cl)c(Cl)c1Cl [Compound E13, 2,3,4,6-tetrachloronitrobenzene]
In vitro
  CC50: 80 µM
HIV-1RF; [5]
  pIC50: < 3.70

## O=[N+]([O-])c1c(Cl)c(Cl)c(Cl)c(Cl)c1Cl [Compound E14, pentachloronitrobenzene]
In vitro
  CC50: > 200 µM
HIV-1RF; [5]
  pIC50: < 3.70

## O=[N+]([O-])c1cc([N+](=O)[O-])c(Cl)c(S(=O)(=O)O)c1 [Compound S2, 2-chloro-3,5-dinitrobenzenesulfonic acid]
HIV-1RF
  TI: >8
HIV-1RF; read-out: IC50
  pIC50: 4.60
Uninfected cells
  CD50: >200µm
[1]; ip
  T/C%: 137%

## Nc1c([N+](=O)[O-])cc(S(=O)(=O)O)cc1[N+](=O)[O-] [Compound S3, 4-amino-3,5-dinitrobenzenesulfonic acid]
HIV-1RF
  TI: 5
HIV-1RF; read-out: IC50
  pIC50: 4.70
Uninfected cells
  CD50: 100µm
[1]; ip
  T/C%: 286%

## O=[N+]([O-])c1cc(S(=O)(=O)O)ccc1Cl [Compound S4, 4-chloro-3-nitrobenzenesulfonic acid]
In vitro
  CC50: > 200 µM
HIV-1RF; [6]
  pIC50: < 3.70
[1]; ip
  response vs control in vivo at 100 mg/kg: 140%

## O=S(=O)(O)c1ccc(Cl)cc1 [Compound S5, 4-chlorobenzenesulfonic acid]
In vitro
  CC50: > 200 µM
HIV-1RF; [6]
  pIC50: < 3.70
[1]; median survival, test vs solvent control, 100 mg kg^-1 ip per day, schedule days 1,2,3,4,5
  response vs control in vivo at 100 mg/kg: 443%

## O=S(=O)(O)c1cc(Cl)ccc1Cl [Compound S7, 2,5-dichlorobenzenesulfonic acid]
In vitro
  CC50: > 200 µM
HIV-1RF; [6]
  pIC50: < 3.70
[1]; ip
  response vs control in vivo at 100 mg/kg: 212%

## O=[N+]([O-])c1ccc(S(=O)(=O)O)c([N+](=O)[O-])c1 [Compound S8, 2,4-dinitrobenzenesulfonic acid]
In vitro
  CC50: 100 µM
HIV-1RF; read-out: IC50 (Antiviral)
  pIC50: 4.40 and 4.52
[1]; ip
  T/C%: 171%
